{"source": "patent US6479033B1", "about": "“Antitumor cystostatic and contrast agent” (priority 1994, dated 2002)", "test_system": "Tumor", "assay": "Tumor growth and contrasting agent in the liver after treatment (carboplatin, Spherex, gelatin foam)", "type": "in vivo", "settings": "carboplatin encapsulated in SUV-PEG", "source_text": "The following Table summarizes results obtained using carboplatin as the cytostatic drug encapsulated in SUV-PEG and Spherex gelatin foam as the starch particle."}
{"smiles": "N.N.O=C([O-])C1(C(=O)[O-])CCC1.[Pt+2]", "note": "[Carboplatin, carboplatin]", "values": [{"measurement": "Tumor growth by a factor of (7 days after treatment)", "result": "1.45 ± 0.96"}]}
